Experiment: Body weight evolution of treated mice
Type: in vivo
Experimental: The mice enrolled were FVB-Tg(Sod1*G86R)M1Jwg/J mice from JAX laboratories. Animals were group-housed (10 per cage) in a temperature-controlled room (22±2° C.) with a 12/12-hour light/dark cycle. Food and water were feed ad-libitum. […] Breeding was realized (since 2013 may) in SOPF facility and genotyping is performed by qPCR (from tail biopsy). Animal are identified with earrings.
Mice were handled and weighted at the age of 60 days. Canula implantation in intra cerebro-ventricular (ICV) by stereotaxie start at this date and mice are acclimated during 1 week.
(Gurney and al, Neurology, 1998). Then they were evaluated, twice a week (i.e. body weight and neuroscore), from the age of 67 days to their death.
Two different treatments are performed from 75 days to death: • HT_pHPL prepared as described in example 1 and at 1 g/L, pH 7.4 versus vehicle. The dose of HT_pHPL administrated by intermittent ICV was 4 μL, three times a week at rate of 0.5 μL/min. […]

Nc1nc2ccc(OC(F)(F)F)cc2s1 [Riluzole]
day of body weight decrease (Tg mice FVB-Tg(Sod1*G86R)): 88 days | effect on body weight evolution (WT mice): no effect

From US11744863B2, “Process for preparing a pooled human platelet lysate, pooled human platelet lysate and its use for treating neurological disorders” (priority 2017, dated 2023)
